From paper PMC12298624, “Anti-Infective Properties, Cytotoxicity, and In Silico ADME Parameters of Novel 4′-(Piperazin-1-yl)benzanilides” (Pharmaceuticals, 2025)
Read-outs that look alike come from different tables or passages of the source.

Tests used:
[1] = test system: P. falciparum NF54; assay: In vitro microplate assay against P. falciparum NF54 (3H-hypoxanthine incorporation); assay type: cell-based, Plasmodium falciparum; details: Plasmodium falciparum
Procedure: Serial drug dilutions of eleven 3-fold dilution steps covering a range from 100 to 0.002 µg/mL were prepared. […] After 48 h of incubation time, 0.05 mL of ^3H-hypoxanthine (=0.5 µCi) was added to each well of the plate. The plates were incubated for a further 24 h under the same conditions. Plates were then harvested using a BetaplateTM cell harvester (Wallac, Zurich, Switzerland). Red blood cells were transferred onto a glass fiber filter and then washed with distilled aqua demin. The dried filters were inserted into a plastic foil with 10 mL of scintillation fluid and counted in a BetaplateTM liquid scintillation counter (Wallac, Zurich, Switzerland). IC50 values were calculated from sigmoidal inhibition curves by linear regression using Microsoft Excel. […] Louis, MO, USA) was used as control.

[2] = Resazurin-based in vitro cytotoxicity with L-6 cells; assay type: cell-based, rat
Procedure: Serial drug dilutions of eleven 3-fold dilution steps covering a range from 100 to 0.002 µg/mL were prepared. After 70 h of incubation, the plates were inspected under an inverted microscope to assure growth of the controls and sterile conditions. […] The plates were read with a Spectramax Gemini XS microplate fluorometer (Molecular Devices Cooperation, Sunnyvale, CA, USA) using an excitation wavelength of 536 nm and an emission wavelength of 588 nm. IC50 values were calculated by linear regression from the sigmoidal dose–inhibition curves using SoftmaxPro software Version 8.2.1 (Molecular Devices Cooperation, Sunnyvale, CA, USA). Podophyllotoxin (Sigma P4405) was used as control.

[3] = Resazurin-based in vitro cytotoxicity with HepG2 cells; assay type: cell-based, human; details: HepG2 cells; human hepatocarcinoma cells, 48 h
Procedure: The HepG2 cells were washed with DPBS (Dulbecco’s PBS without calcium and magnesium, Gibco, Cat #21600-044) and trypsinized with trypsin solution in DPBS. Trypsinization was stopped by adding culture medium, and after being stained with Trypan Blue (SORS Ukraine) cells were counted using a counting chamber (Hausser Scientific, Cat #3500). The cell suspension was placed in a falcon tube containing plating medium DMEM/High glucose with 1% fetal bovine serum, 100 units/mL penicillin, and 100 µg/mL streptomycin. Cells at a density of 250,000 cells/mL were seeded in sterile 384-well plates (Greiner Bio-One, Cat #781091) in a volume of […] and incubated at 37 °C and 5% CO2. Serial dilutions of ten 3-fold dilution steps of test and reference compounds covering a range from 100.0 to 0.005 µM were added to the wells, followed by incubation at 37 °C and 5% CO2 for 48 h. Then, resazurin (50 µM final concentration) was added and plates were incubated for another 3 h. The plates were read with a SpectraMax microplate reader (Molecular Devices Cooperation, Sunnyvale, CA, USA)) using an extinction wavelength of 555 nm and an emission wavelength of 570 nm. IC50 values were calculated using GraphPad Prism 9.0 charting software. Doxorubicin (Sigma Aldrich D1515) was used as control.

[4] = Parallel artificial membrane permeability assay (PAMPA); details: for Pe: PAMPA standards; for Papp at 5 h, 200 µM: PAMPA, pH 7.4, Pe, PBS pH 7.4, 200 µM, room temperature
Procedure: With the high-throughput PAMPA the newly synthesized compounds were tested for their passive permeability through cell membranes without the influence of efflux pumps or transporter proteins. The assay was performed using a Corning® Gentest^TM Precoated PAMPA Plate System (Corning, Glendale, AZ, USA) with 96-well polystyrene plates. The bottom of the acceptor plate consists of a porous membrane, whereby the pores are lined with a lipid–oil–lipid triple layer. Stock solutions of each test compound at 10 mM were prepared in DMSO or methanol and diluted with phosphate-buffered saline (PBS at a pH of 7.4) to a final concentration of 200 µM. […] The donor plate (bottom plate) was filled with the compound solutions, whereby all compounds were tested in quadruplicates. Each well of the acceptor plate (top plate) was filled with PBS buffer. Donor and acceptor plates were combined and incubated at room temperature for 5 h. After that, the plates were separated and 150 µL of each well of both plates were transferred to 96-well UV plates (Greiner Bio-One). Absorption at different wavelengths covering a range from 200 to 300 nm was measured using a SpectraMax M3 UV plate reader. […] The plates were analyzed at the wavelength where the R2 value of the calibration curve was higher than 0.99 [47].
Recovery of compounds from donor and acceptor wells (mass retention) was calculated as shown in the equation below. Data were only accepted when recovery exceeded 70%. The equation is as follows:(3) R=1−[cDt×VD+cAt×VA]/(c0×VD) where

[5] = test system: K. pneumoniae ATCC 700603; assay: MIC/MBC microbroth dilution (EUCAST); assay type: cell-based; details: Klebsiella pneumoniae, ATCC700603
Procedure: (§1) Minimum inhibitory concentrations (MIC values) were obtained using the microbroth dilution method as stated in the EUCAST guidelines. Tests were conducted on cation adjusted Mueller–Hinton broth (caMHB) or agar (caMHA). These were prepared and stored following the manufacturer’s guidelines. Biological organisms were prepared via growth on either Luria–Bertani (LB) or cation adjusted Mueller–Hinton agar plates. These were grown for 24 h at 37 °C, except for Micrococcus luteus where MICs took longer to grow and as a consequence were read after 48 h once a clear positive control could be observed. For the MIC experiment, the bacteria were prepared using the McFarland 0.5 standard and diluted 1 in 100 or 1 in 10 in caMHB following EUCAST and CSLI guidelines for the preparation of bacteria. Testing of the compounds using the microbroth dilution method took place in 96-well plates. Serial 2-fold dilutions of compounds in caMHB covering a range from 256 µg/mL to 0.25 µg/mL were prepared. Bacteria preparations (McFarland) were added to the compound dilutions, further halving the compound concentrations. The plate was then incubated for 18 h at 37 °C. Controls for the MIC experiments included a bacterial growth (positive) control of bacteria and caMHB only and a media only (negative) control. After incubation, the plates were read, whereby the positive control of bacteria was visible and the negative control was clear of contamination. The last clear well, where there is no growth of bacteria, was counted as the MIC value. […] The lowest concentration without any bacterial growth was counted as the MBC value. The following pathogens were used: Pseudomonas aeruginosa NCTC 13437, Escherichia coli NCTC 13353, Bacillus subtilis 168a, Serratia marcescens NCTC 9940, Micrococcus luteus ATCC 10240, Staphylococcus aureus JE2 USA 300, Acinetobacter baumannii ATCC 19606, and Klebsiella pneumoniae ATCC 700603. A concentration range of 256 µg/mL to 0.25 µg/mL of a combination of ciprofloxacin and meropenem against E. coli 25922 was used as an antibiotic control to ensure correct dilution and performance of the assay.

[6] = test system: P. aeruginosa NCTC 13437; assay: MIC/MBC microbroth dilution (EUCAST); assay type: cell-based; details: Pseudomonas aeruginosa, NCTC13437
Procedure: as §1

[7] = test system: S. aureus JE2 USA 300; assay: MIC/MBC microbroth dilution (EUCAST); assay type: cell-based; details: Staphylococcus aureus, USA300, S. aureus JE2 USA 300
Procedure: as §1

[8] = test system: S. marcescens NCTC 9940; assay: MIC/MBC microbroth dilution (EUCAST); assay type: cell-based; details: Serratia marcescens, NCTC9940
Procedure: as §1

[9] = test system: E. coli NCTC 13353; assay: MIC/MBC microbroth dilution (EUCAST); assay type: cell-based, Escherichia coli; details: Escherichia coli
Procedure: as §1

[10] = test system: A. baumannii ATCC 19606; assay: MIC/MBC microbroth dilution (EUCAST); assay type: cell-based, Acinetobacter baumannii; details: Acinetobacter baumannii
Procedure: as §1

[11] = test system: B. subtilis 168a; assay: MIC/MBC microbroth dilution (EUCAST); assay type: cell-based, Bacillus subtilis; details: Bacillus subtilis, 168A
Procedure: as §1

[12] = NF54, chloroquine-sensitive strain NF54, erythrocytic stages, read-out: P.f.NF54 IC50
[13] = rat skeletal myofibroblasts, read-out: Cytotoxicity L-6 Cells IC50

Row | SMILES | IC50 [1, 12] [µM] | Papp at 5 h, 200 µM [4] [×10⁻⁶ cm/s] | IC50 at 70 h ([2]; rat) [µM] | IC50 at 48 h [3] [µM] | also measured
1 | NS(=O)(=O)c1cc2c(cc1Cl)NCNS2(=O)=O [hydrochlorothiazide, reference compound] |  |  |  |  | Pe [4]: 0.09 ×10⁻⁶ cm/s
2 | COc1cc([C@@H]2c3cc4c(cc3[C@H](O)[C@H]3COC(=O)[C@H]23)OCO4)cc(OC)c1OC [POD, podophyllotoxin, reference compound] |  |  |  |  | IC50 at 70 h [2, 13]: 0.012 µM
3 | Cn1c(=O)c2c(ncn2C)n(C)c1=O [caffeine, reference compound] |  |  |  |  | Pe [4]: 8 ×10⁻⁶ cm/s
4 | O=C(Nc1ccc(N2CCNCC2)cc1)c1cccc(F)c1Oc1ccc(F)cc1 [Compound 60, 3-Fluoro-2-(4-fluorophenoxy)-N-[4-(piperazin-1-yl)phenyl]benzamide] | 4.7 | 11.7 | 40.8 | 26.2 | MBC [5]: > 256 µg/mL; MIC [5]: > 256 µg/mL; MBC [6]: > 256 µg/mL; MIC [6]: > 256 µg/mL; MBC [7]: > 256 µg/mL; MIC [7]: > 256 µg/mL; MBC [8]: > 256 µg/mL; MIC [8]: > 256 µg/mL; MBC ([9]; NCTC13353): > 256 µg/mL; MIC ([9]; NCTC13353, read-out: MIC): > 256 µg/mL; MBC ([10]; ATCC19606): > 256 µg/mL; MIC ([10]; ATCC19606, read-out: MIC): > 256 µg/mL; MBC [11]: 256 µg/mL; MIC ([11]; read-out: MIC): 256 µg/mL
5 | O=C(Nc1ccc(N2CCNCC2)cc1)c1cccc(C(F)(F)F)c1 [Compound 66, N-[4-(Piperazin-1-yl)phenyl]-3-(trifluoromethyl)benzamide] | 2.6 | 3.91 | 41.5 | 11.8 | 
6 | CC(C)(C)OC(=O)N1CCN(C(=O)c2cccc(C(F)(F)F)c2Oc2ccc(F)cc2)CC1 [Compound 50, tert-Butyl-4-[2-(4-fluorophenoxy)-3-(trifluoromethyl)benzoyl]piperazine-1-carboxylate] | 51.8 | 1.82 | 41.4 | 35.2 | 
7 | COc1cccc2c1C(=O)c1c(O)c3c(c(O)c1C2=O)C[C@@](O)(C(=O)CO)C[C@@H]3O[C@H]1C[C@H](N)[C@H](O)[C@H](C)O1 [DOX, doxorubicin, reference compound] |  |  |  | 0.3 | 
8 | CCN(CC)CCCC(C)Nc1ccnc2cc(Cl)ccc12 (centres unmarked) [CQ, chloroquine, reference compound] |  |  |  |  | IC50 ([1]; NF54, read-out: P.f.NF54 IC50): 0.009 µM; IC50 at 70 h [2, 13]: 90.9 µM

Continued, in another order:

Row | IC50 [1, 12] [µM] | Papp at 5 h, 200 µM [4] [×10⁻⁶ cm/s] | SMILES | IC50 at 70 h ([2]; rat) [µM] | IC50 at 48 h [3] [µM] | also measured
9 | 7.58 |  | CN(C)c1ccc(NC(=O)c2cccc(C(F)(F)F)c2Oc2ccc(F)cc2)cc1 [Compound 36, N-[4-(Dimethylamino)phenyl]-2-(4-fluorophenoxy)-3-(trifluoromethyl)benzamide] | 239 | > 100 | 
10 | 15.7 |  | CC(=O)Nc1ccc(Oc2c(C(=O)Nc3ccc(N4CCNCC4)cc3)cccc2C(F)(F)F)cc1 [Compound 63, 2-(4-Acetamidophenoxy)-N-[4-(piperazin-1-yl)phenyl]-3-(trifluoromethyl)benzamide] | 113 |  | 
11 | 4.4 |  | CN(C)c1ccccc1NC(=O)c1cccc(C(F)(F)F)c1Oc1ccc(F)cc1 [Compound 35, N-[2-(Dimethylamino)phenyl]-2-(4-fluorophenoxy)-3-(trifluoromethyl)benzamide] | 25.1 |  | 
12 | 14 |  | CN1CCN(c2ccccc2NC(=O)c2cccc(C(F)(F)F)c2Oc2ccc(F)cc2)CC1 [Compound 31, 2-(4-Fluorophenoxy)-N-[2-(4-methylpiperazin-1-yl)phenyl]-3-(trifluoromethyl)benzamide] | 120 |  | 
13 | 6.81 | 3.92 | O=C(Nc1ccc(N2CCOCC2)cc1)c1cccc(C(F)(F)F)c1Oc1ccc(F)cc1 [Compound 33, 2-(4-Fluorophenoxy)-N-[4-(morpholin-4-yl)phenyl]-3-(trifluoromethyl)benzamide] | 195 | 35.3 | 
14 | 1.04 | 6.39 | O=C(Nc1ccccc1N1CCNCC1)c1cccc(C(F)(F)F)c1Oc1ccc(F)cc1 [Compound 53, 2-(4-Fluorophenoxy)-N-[2-(piperazin-1-yl)phenyl]-3-(trifluoromethyl)benzamide] | 13.5 | 4.1 | 
15 | 11.1 | 0.26 | CC(=O)Nc1ccc(Oc2c(C(=O)Nc3ccccc3N3CCNCC3)cccc2C(F)(F)F)cc1 [Compound 54, 2-(4-Acetamidophenoxy)-N-[2-(piperazin-1-yl)phenyl]-3-(trifluoromethyl) benzamide] | 13.2 |  | 
16 | 3.04 | 6.63 | O=C(Nc1ccccc1N1CCOCC1)c1cccc(C(F)(F)F)c1Oc1ccc(F)cc1 [Compound 32, 2-(4-Fluorophenoxy)-N-[2-(morpholin-4-yl)phenyl]-3-(trifluoromethyl)benzamide] | 161 | > 100 | 
